ChEMBL document CHEMBL5291721, “A preclinical secondary pharmacology resource illuminates target-adverse drug reaction associations of marketed drugs” (Nat Commun, 2023)

Tests used:
Androgen receptor = target: T1, Androgen receptor (Homo sapiens, UniProt P10275)
T1 sequence (P10275 whole entry): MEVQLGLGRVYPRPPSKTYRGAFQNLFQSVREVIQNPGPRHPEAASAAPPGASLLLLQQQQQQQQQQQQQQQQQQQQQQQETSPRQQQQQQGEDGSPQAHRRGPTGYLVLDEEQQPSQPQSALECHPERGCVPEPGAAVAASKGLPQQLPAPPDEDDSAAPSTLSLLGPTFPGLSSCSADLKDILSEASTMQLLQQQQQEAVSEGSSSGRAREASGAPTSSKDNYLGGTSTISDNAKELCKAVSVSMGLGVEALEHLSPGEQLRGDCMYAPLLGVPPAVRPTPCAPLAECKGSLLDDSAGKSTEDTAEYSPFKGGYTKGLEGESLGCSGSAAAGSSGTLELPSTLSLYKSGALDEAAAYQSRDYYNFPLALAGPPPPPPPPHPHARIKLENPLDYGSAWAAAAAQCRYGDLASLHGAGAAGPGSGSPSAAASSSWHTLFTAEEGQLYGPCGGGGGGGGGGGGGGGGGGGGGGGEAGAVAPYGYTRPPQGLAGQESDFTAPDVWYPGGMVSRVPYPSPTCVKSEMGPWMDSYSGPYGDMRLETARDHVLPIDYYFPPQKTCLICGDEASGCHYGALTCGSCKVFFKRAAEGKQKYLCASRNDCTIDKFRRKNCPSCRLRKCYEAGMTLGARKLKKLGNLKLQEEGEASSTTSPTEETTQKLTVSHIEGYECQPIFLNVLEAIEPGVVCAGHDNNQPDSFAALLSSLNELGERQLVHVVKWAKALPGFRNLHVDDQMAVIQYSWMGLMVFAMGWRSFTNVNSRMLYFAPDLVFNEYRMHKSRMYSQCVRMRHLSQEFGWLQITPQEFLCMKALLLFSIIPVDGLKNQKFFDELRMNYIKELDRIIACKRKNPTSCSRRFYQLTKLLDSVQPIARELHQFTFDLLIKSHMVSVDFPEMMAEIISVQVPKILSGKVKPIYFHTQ

[1] = target: T2, Gastric inhibitory polypeptide receptor (Homo sapiens, UniProt P48546)
T2 sequence (P48546 whole entry): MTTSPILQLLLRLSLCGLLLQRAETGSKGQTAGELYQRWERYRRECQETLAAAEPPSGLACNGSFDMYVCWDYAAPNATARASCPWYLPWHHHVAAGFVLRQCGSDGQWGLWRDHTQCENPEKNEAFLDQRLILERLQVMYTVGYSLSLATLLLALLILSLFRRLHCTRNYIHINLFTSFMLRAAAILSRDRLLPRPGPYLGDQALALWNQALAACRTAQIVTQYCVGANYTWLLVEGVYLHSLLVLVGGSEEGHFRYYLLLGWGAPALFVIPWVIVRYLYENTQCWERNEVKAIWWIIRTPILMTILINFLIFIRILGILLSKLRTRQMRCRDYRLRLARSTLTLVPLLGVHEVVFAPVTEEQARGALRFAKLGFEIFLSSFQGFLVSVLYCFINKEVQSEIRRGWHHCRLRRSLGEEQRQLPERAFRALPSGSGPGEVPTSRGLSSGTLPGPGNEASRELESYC

[2] = target: 5-hydroxytryptamine receptor 6 (Homo sapiens, UniProt P50406)
Estrogen receptor beta = Estrogen receptor beta (Homo sapiens, UniProt Q92731)
Histamine H2 receptor = Histamine H2 receptor (Homo sapiens, UniProt P25021)
[3] = target: 5-hydroxytryptamine receptor 2A (Homo sapiens, UniProt P28223); format: functional, cell-based
[4] = target: Gamma-aminobutyric acid receptor subunit alpha-1/alpha-2/beta-2/gamma-2 (Homo sapiens, UniProt P14867+P18507+P47869+P47870); format: functional, cell-based
[5] = target: Epidermal growth factor receptor (Homo sapiens, UniProt P00533); format: functional
D(1A) dopamine receptor = D(1A) dopamine receptor (Homo sapiens, UniProt P21728); format: functional, cell-based
[6] = target: T3, Peroxisome proliferator-activated receptor gamma (Homo sapiens, UniProt P37231); format: functional
T3 sequence (P37231 whole entry): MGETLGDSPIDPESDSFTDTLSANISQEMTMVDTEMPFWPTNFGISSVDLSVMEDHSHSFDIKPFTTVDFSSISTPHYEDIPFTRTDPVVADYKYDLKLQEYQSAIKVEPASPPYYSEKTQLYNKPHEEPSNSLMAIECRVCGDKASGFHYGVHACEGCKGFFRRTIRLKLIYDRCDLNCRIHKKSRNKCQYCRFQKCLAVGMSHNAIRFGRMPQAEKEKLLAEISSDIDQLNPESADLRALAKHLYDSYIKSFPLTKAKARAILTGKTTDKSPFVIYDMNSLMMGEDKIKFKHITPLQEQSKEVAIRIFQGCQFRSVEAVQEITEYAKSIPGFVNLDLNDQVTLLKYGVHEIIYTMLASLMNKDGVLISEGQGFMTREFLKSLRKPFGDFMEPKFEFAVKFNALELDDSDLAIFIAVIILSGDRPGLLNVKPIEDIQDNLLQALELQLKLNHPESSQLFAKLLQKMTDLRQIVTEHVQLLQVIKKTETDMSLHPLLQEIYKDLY
Further: assay procedure not described here.

5-hydroxytryptamine receptor 2A, sequence (P28223 whole entry): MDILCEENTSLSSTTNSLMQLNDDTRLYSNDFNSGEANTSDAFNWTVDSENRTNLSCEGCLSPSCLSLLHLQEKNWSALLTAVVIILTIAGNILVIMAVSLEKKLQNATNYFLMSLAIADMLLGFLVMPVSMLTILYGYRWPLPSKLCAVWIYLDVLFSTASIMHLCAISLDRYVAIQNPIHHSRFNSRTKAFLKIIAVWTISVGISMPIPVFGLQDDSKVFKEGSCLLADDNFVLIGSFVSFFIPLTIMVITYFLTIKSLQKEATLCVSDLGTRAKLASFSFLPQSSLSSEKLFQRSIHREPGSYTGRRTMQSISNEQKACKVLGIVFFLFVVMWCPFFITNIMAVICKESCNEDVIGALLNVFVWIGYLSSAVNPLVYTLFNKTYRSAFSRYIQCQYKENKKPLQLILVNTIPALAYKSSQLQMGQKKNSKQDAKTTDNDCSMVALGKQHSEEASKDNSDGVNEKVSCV
Estrogen receptor beta, sequence (Q92731 whole entry): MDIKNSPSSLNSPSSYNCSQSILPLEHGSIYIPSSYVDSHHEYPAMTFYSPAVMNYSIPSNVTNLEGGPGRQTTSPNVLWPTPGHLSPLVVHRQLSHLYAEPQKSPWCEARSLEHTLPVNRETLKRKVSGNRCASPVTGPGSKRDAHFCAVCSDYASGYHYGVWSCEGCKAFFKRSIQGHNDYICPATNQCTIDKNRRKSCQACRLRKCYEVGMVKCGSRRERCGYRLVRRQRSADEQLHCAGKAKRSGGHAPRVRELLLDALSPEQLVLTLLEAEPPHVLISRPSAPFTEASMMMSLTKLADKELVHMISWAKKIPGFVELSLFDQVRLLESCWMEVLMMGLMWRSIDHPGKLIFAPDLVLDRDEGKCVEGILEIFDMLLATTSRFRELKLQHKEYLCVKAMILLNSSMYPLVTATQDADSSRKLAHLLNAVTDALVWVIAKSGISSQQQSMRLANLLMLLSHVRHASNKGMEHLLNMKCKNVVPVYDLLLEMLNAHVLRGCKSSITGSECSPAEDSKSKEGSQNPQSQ
Histamine H2 receptor, sequence (P25021 whole entry): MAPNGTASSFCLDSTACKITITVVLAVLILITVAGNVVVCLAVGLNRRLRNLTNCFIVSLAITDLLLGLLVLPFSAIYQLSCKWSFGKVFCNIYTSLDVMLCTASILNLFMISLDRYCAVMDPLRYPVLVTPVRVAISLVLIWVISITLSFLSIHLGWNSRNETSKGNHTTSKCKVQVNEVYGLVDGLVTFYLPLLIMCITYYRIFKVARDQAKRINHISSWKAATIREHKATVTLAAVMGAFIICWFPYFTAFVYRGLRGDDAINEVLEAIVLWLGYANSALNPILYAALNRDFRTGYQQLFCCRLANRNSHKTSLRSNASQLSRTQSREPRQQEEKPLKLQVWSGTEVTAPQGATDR
Gamma-aminobutyric acid receptor subunit alpha-1/alpha-2/beta-2/gamma-2, sequence (P14867 whole entry): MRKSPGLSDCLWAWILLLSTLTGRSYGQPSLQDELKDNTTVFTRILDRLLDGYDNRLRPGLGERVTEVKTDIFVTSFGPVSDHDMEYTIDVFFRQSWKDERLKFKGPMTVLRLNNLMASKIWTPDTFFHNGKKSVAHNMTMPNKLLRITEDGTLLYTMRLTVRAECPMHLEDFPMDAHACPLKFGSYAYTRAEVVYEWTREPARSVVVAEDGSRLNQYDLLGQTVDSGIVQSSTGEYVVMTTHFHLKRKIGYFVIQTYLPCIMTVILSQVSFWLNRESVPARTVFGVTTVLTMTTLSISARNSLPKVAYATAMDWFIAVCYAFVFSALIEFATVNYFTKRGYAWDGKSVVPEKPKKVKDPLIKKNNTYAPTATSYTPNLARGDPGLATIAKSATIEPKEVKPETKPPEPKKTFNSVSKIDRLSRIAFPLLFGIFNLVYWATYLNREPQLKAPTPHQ
Gamma-aminobutyric acid receptor subunit alpha-1/alpha-2/beta-2/gamma-2, sequence (P47870 whole entry): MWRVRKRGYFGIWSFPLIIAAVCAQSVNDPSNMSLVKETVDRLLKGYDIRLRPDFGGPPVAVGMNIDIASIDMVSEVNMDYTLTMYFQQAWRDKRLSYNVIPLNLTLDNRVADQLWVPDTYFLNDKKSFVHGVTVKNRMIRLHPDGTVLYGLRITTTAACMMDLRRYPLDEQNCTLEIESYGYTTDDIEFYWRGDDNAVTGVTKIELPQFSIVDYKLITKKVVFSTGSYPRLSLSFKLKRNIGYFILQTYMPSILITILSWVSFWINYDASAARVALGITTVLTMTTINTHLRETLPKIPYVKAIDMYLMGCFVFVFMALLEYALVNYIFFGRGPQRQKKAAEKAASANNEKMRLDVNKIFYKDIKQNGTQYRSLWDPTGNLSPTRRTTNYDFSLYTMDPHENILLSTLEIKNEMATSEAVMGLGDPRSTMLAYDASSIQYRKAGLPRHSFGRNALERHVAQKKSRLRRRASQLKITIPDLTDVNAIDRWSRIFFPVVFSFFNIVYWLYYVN
Gamma-aminobutyric acid receptor subunit alpha-1/alpha-2/beta-2/gamma-2, sequence (P18507 whole entry): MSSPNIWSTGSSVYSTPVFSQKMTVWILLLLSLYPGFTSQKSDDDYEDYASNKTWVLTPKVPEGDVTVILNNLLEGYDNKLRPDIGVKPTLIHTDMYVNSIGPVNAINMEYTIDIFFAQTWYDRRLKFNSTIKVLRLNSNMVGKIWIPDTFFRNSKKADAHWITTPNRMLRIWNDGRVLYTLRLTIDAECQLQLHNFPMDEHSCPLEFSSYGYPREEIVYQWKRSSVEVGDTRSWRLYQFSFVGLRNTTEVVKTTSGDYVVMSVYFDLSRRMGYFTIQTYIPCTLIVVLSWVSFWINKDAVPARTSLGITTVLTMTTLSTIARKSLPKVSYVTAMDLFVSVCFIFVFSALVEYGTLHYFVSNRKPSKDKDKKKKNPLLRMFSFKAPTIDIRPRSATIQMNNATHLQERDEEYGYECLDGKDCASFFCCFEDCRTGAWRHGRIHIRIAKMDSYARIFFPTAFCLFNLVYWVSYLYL
Gamma-aminobutyric acid receptor subunit alpha-1/alpha-2/beta-2/gamma-2, sequence (P47869 whole entry): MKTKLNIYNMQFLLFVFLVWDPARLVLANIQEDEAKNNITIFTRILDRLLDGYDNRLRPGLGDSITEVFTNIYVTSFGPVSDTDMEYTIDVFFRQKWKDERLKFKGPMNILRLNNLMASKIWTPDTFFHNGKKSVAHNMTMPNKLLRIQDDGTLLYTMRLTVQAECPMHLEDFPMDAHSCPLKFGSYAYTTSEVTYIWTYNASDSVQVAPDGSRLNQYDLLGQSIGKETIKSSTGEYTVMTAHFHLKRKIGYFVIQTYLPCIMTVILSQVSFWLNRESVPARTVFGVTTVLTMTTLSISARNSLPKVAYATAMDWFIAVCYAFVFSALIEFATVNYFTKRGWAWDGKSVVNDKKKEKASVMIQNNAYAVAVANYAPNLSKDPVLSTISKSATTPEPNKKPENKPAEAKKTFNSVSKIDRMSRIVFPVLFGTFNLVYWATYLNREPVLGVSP
5-hydroxytryptamine receptor 6, sequence (P50406 whole entry): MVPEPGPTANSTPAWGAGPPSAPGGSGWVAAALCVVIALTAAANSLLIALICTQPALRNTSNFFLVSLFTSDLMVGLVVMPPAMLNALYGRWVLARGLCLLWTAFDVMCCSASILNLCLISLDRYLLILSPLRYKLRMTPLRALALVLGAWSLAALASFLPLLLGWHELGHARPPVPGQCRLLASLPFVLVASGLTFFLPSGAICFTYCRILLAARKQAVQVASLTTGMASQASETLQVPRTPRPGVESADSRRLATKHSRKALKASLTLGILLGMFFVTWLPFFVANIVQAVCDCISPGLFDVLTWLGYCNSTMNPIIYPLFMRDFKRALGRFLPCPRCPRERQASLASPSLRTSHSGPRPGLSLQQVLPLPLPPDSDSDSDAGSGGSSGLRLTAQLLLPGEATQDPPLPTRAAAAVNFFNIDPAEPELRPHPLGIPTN
D(1A) dopamine receptor, sequence (P21728 whole entry): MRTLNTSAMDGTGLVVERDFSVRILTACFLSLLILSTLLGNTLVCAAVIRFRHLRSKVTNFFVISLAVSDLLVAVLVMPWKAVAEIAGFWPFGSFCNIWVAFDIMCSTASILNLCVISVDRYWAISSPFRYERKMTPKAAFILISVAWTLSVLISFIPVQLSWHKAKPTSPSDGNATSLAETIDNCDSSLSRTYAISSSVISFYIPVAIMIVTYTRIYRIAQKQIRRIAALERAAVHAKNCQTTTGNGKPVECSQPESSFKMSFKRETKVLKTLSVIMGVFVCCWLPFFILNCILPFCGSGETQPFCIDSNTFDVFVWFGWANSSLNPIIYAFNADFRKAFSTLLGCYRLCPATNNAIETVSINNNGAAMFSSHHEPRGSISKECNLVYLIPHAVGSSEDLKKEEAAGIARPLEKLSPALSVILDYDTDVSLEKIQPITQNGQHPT

SMILES: COc1nccnc1NS(=O)(=O)c1ccc(N)cc1
- AC50 (Androgen receptor): > 30 µM

SMILES: NC(=O)c1nc(F)c[nH]c1=O
- AC50 (Androgen receptor): > 30 µM

SMILES: CN(C)CCCN1C(=O)c2cc([N+](=O)[O-])ccc2Oc2ccccc21
- AC50 (Androgen receptor): > 30 µM

SMILES: CC1(C)S[C@@H]2[C@H](NC(=O)[C@H](N)c3ccc(O)cc3)C(=O)N2[C@H]1C(=O)O [AMOXICILLIN]
- AC50 [1]: > 30 µM
- AC50 [2]: > 10 µM
- AC50 (Estrogen receptor beta): > 30 µM
- AC50 (Histamine H2 receptor): > 10 µM

SMILES: O=C1CN2Cc3c(ccc(Cl)c3Cl)N=C2N1 [ANAGRELIDE]
- AC50 [3]: > 30 µM

SMILES: O=C(O)COc1nn(Cc2ccccc2)c2ccccc12 [BENDAZAC]
- AC50 (Androgen receptor): > 30 µM

SMILES: CCc1oc2ccccc2c1C(=O)c1cc(Br)c(O)c(Br)c1 [BENZBROMARONE]
- AC50 [4]: > 30 µM

SMILES: C=C(C)[C@@H]1CCC(C)=C[C@H]1c1c(O)cc(CCCCC)cc1O [CANNABIDIOL]
- AC50 [5]: > 30 µM
- AC50 (D(1A) dopamine receptor): 10 µM
- AC50 [3]: > 30 µM

SMILES: CO/N=C(\C(=O)N[C@@H]1C(=O)N2C(C(=O)O)=C(COC(N)=O)CS[C@H]12)c1ccco1 [CEFUROXIME]
- AC50 [6]: > 30 µM
- AC50 [3]: > 30 µM
- AC50 [4]: > 30 µM

SMILES: [H]/N=C(\N/C(=N/[H])NCCCCCCNC(=N)NC(=N)Nc1ccc(Cl)cc1)Nc1ccc(Cl)cc1 [CHLORHEXIDINE]
- AC50 [3]: > 10 µM

SMILES: Clc1cccc(Cl)c1N=C1NCCN1 [CLONIDINE]
- AC50 [1]: > 30 µM
- AC50 (Histamine H2 receptor): > 10 µM

SMILES: COC(=O)[C@H](c1ccccc1Cl)N1CCc2sccc2C1 [CLOPIDOGREL]
- AC50 [1]: > 30 µM
- AC50 [2]: > 10 µM
- AC50 [6]: > 30 µM
- AC50 (Estrogen receptor beta): > 30 µM
- AC50 [4]: > 30 µM
- AC50 (Histamine H2 receptor): > 10 µM

SMILES: CN(CC(=O)O)C(=N)N [CREATINE]
- AC50 (Androgen receptor): > 30 µM

SMILES: N[C@@H](CSSC[C@H](N)C(=O)O)C(=O)O [CYSTINE]
- AC50 (Androgen receptor): > 30 µM

SMILES: CN1C[C@H](C(=O)N[C@]2(C)O[C@@]3(O)[C@@H]4CCCN4C(=O)[C@H](Cc4ccccc4)N3C2=O)C[C@@H]2c3cccc4[nH]cc(c34)C[C@H]21 [DIHYDROERGOTAMINE]
- AC50 [1]: > 30 µM
- AC50 (Estrogen receptor beta): > 30 µM
- AC50 (Histamine H2 receptor): 0.257 µM

SMILES: CC1(C)O[C@@H]2C[C@H]3[C@@H]4C[C@H](F)C5=CC(=O)C=C[C@]5(C)[C@H]4[C@@H](O)C[C@]3(C)[C@]2(C(=O)CO)O1 [FLUNISOLIDE]
- AC50 [6]: > 30 µM
- AC50 [4]: > 30 µM

SMILES: CCC(=O)O[C@@H](O[P@](=O)(CCCCc1ccccc1)CC(=O)N1C[C@H](C2CCCCC2)C[C@H]1C(=O)O)C(C)C [FOSINOPRIL]
- AC50 [3]: > 30 µM
- AC50 [4]: > 30 µM

SMILES: CC(C)(N)C(=O)N[C@H](Cc1c[nH]c2ccccc12)C(=O)N[C@H](Cc1c[nH]c2ccccc12)NC=O [MACIMORELIN]
- AC50 (Androgen receptor): > 30 µM

SMILES: C=C1c2c(Cl)ccc(O)c2C(=O)C2=C(O)[C@]3(O)C(=O)C(C(N)=O)=C(O)[C@@H](N(C)C)[C@@H]3[C@@H](O)[C@H]12 [MECLOCYCLINE]
- AC50 (Androgen receptor): > 30 µM

SMILES: Cc1cnc(NC(=O)C2=C(O)c3ccccc3S(=O)(=O)N2C)s1 [MELOXICAM]
- AC50 [1]: > 30 µM
- AC50 [2]: > 10 µM
- AC50 (Estrogen receptor beta): > 30 µM
- AC50 (Histamine H2 receptor): > 10 µM
